# Assay results reported in ChEMBL document CHEMBL1155550, “Rationale design of biotinylated antimalarial endoperoxide carbon centered radical prodrugs for applications in proteomics” (J Med Chem, 2010).
# System: Plasmodium falciparum
# Experiment: Antiplasmodial activity against chloroquine-sensitive Plasmodium falciparum 3D7 infected in human erythrocytes assessed as inhibition of [3H]hypoxanthine incorporation after 48 hrs by liquid scintillation counting
# Format: functional, organism-based
# Conditions: not given; call rule not given here
row,SMILES,IC50
1,O=C(CCCC[C@@H]1SC[C@@H]2NC(=O)N[C@@H]21)NS(=O)(=O)c1cccc(CNC(=O)C23CC4CC(C2)[C@]2(OO[C@]5(CCCCC5)O2)C(C4)C3)c1,Not Active

# Same assay, conditions: Plasmodium falciparum, 3D7; read-out: IC50
row,SMILES,IC50 [nM]
1,O=C(O)C12CC3CC(C1)[C@]1(OO[C@]4(CCCCC4)O1)C(C3)C2,150
2,CC(C)(C)OC(=O)NCc1cccc(CNC(=O)C23CC4CC(C2)[C@]2(OO[C@]5(CCCCC5)O2)C(C4)C3)c1,5.1
3,O=C(NCc1cccc(CNC(=O)C23CC4CC(C2)[C@]2(OO[C@]5(CCCCC5)O2)C(C4)C3)c1)OCC1c2ccccc2-c2ccccc21,27
4,C[C@H]1[C@@H](CC(=O)NCc2cccc(CNC(=O)c3ccc(S(=O)(=O)NC(=O)CCCC[C@@H]4SC[C@@H]5NC(=O)N[C@@H]54)cc3)c2)O[C@@H]2O[C@]3(C)CC[C@H]4[C@H](C)CC[C@@H]1[C@@]24OO3,> 1000
5,O=C(NCCCC[C@H]1SC[C@H]2NC(=O)N[C@H]21)NCc1cccc(CNC(=O)C23CC4CC(C2)[C@]2(OO[C@]5(CCCCC5)O2)C(C4)C3)c1,2.4
6,COC(=O)C12CC3CC(C1)[C@]1(OO[C@]4(CCCCC4)O1)C(C3)C2,5.7
7,OCC12CC3CC(C1)[C@]1(OO[C@]4(CCCCC4)O1)C(C3)C2,8.4
8,C[C@H]1[C@@H](CC(=O)NCc2cccc(CNC(=O)CCSSCCNC(=O)CCCC[C@@H]3SC[C@@H]4NC(=O)N[C@@H]43)c2)O[C@@H]2O[C@]3(C)CC[C@H]4[C@H](C)CC[C@@H]1[C@@]24OO3,91
9,C[C@H]1[C@@H](CCOC(=O)NCCCCC[C@@H]2SC[C@@H]3NC(=O)N[C@@H]32)O[C@@H]2O[C@]3(C)CC[C@H]4[C@H](C)CC[C@@H]1[C@@]24OO3,1.6
